We go through one compound from PMC10089289, “Well-Defined Heparin Mimetics Can Inhibit Binding of the Trimeric Spike of SARS-CoV-2 in a Length-Dependent Manner” (JACS Au, 2023).

The assay concerns the target SARS-CoV-2 Delta RBD binding to Vero E6 cells (Severe acute respiratory syndrome coronavirus 2, UniProt P0DTC2, L452R/T478K). Type of assay: cell-based.

Take `NCCCCCOC1OC(COS(=O)(=O)O)C(OC2OC(C(=O)O)C(OC3OC(COS(=O)(=O)O)C(OC4OC(C(=O)O)C(OC5OC(COS(=O)(=O)O)C(OC6OC(C(=O)O)C(O)C(O)C6O)C(O)C5NS(=O)(=O)O)C(O)C4OS(=O)(=O)O)C(O)C3NS(=O)(=O)O)C(O)C2OS(=O)(=O)O)C(O)C1NS(=O)(=O)O` (stereo not shown) [Compound 1, GlcA-GlcNS6S-IdoA2S-GlcNS6S-IdoA2S-GlcNS6S]: the “Inhibition of delta RBD binding to Vero E6 cells” value is “does not display inhibition”.
